Target: T1, human fascin 1 (Homo sapiens, UniProt Q16658)
T1 construct: GST (N, cleaved yes); made in house; host or cells: Escherichia coli BL21/DE3 (pGEX4T-fascin 1 plasmid)
Assay: Fascin inhibition (actin bundling) assay, image-based
Assay type: biochemical
Conditions: in the presence of 50 μm of the compound relative to bundle activity when the compound was not present; read-out: Inhibition (percentage reduction of bundle activity)
Procedure: Recombinant human fascin 1 was expressed as a GST fusion protein in BL21 Escherichia coli. One liter of 2YT medium with ampicillin was inoculated overnight with 3 mL of BL21/DE3 culture transformed with pGEX4T-fascin 1 plasmid and grown at 37° C. until attenuance at 600 nm (D600) reached about 0.8. The culture was then transferred to 18° C. and induced by the addition of 0.1 mM isopropyl β-d-thiogalactoside (IPTG) for 12 h. Bacteria were harvested by centrifugation at 5,000 r.p.m. for 10 min. The pellets were suspended in 30 mL of PBS supplemented with 0.2 mM PMSF, 1 mM DTT, 1% (v/v) Triton X-100 and 1 mM EDTA. After sonication, the suspension was centrifuged at 15,000 r.p.m. for 30 min to remove the cell debris. The supernatant was then incubated for 2 h with 4 mL of glutathione beads (Sigma) at 4° C. After extensive washing with PBS, the beads were resuspended in 10 mL of thrombin cleavage buffer (20 mM Tris-HCl pH 8.0, 150 mM NaCl, 2 mM CaCl2, 1 mM DTT). Fascin was released from the beads by incubation overnight with 40-100 U of thrombin at 4° C. After centrifugation, 0.2 mM PMSF was added to the supernatant to inactivate the remnant thrombin activity. The fascin protein was further concentrated with a Centricon® (Boca Raton, Fla.) filter to about 50 mg/mL.
Representative compounds described herein were tested for fascin inhibition activity. Purified fascin protein (15 μL of 0.5 μM) in buffer (100 mM KCl, 20 mM Tris/HCl, pH 7.5, 2 mM MgCl2) was added into each well of a clear 384-well flat-bottom plate (Corning) using Thermo Multidrop Combi (Fisher). Compound solutions (5 mM stock, 180 nL) were pin transferred from stock 384-well plates into the 384-well assay plates and incubated for 30 min. Then 15 μL of 0.5 μM polymerized actin (in 100 mM KCl, 20 mM Tris/HCl, pH 7.5, 2 mM MgCl2, 1 mM DTT, 1 mM ATP) (Cytoskeleton Inc.) was added, resulting in 30 μM final concentration for chemical compounds. […] Mixed solution (25 μL) was then transferred to one well in a black 384-well plate coated with poly-D-lysine, and stained actin bundles or F-actin would stick onto the poly-D-lysine plates. After the plates were thoroughly washed with 1×PBS for 3 times, the plate was imaged using an ImageXpress Micro High Content Screening System (Molecular devices). The images were processed and analyzed using MetaMorph software. The raw image data for each well was background-corrected by subtraction of the median intensities across all wells on the plate. The background-corrected data was used to compute the bundle length for each well. The negative control wells were employed for quality control: multiple DMSO-only control wells (16 wells/plate) were present on each assay plate.

Cc1ccc(Cn2nc(NC(=O)c3scnc3C)c3ccccc32)cc1 [Compound 82, 4-methyl-N-(1-(4-methylbenzyl)-1H-indazol-3-yl)thiazole-5-carboxamide]
inhibition at 50 µM: < 10%

CCC(=O)Nc1nn(Cc2ccc(C(F)(F)F)cc2)c2cncc(Cl)c12 [Compound 151, N-(4-chloro-1-(4-(trifluoromethyl)benzyl)-1H-pyrazolo[3,4-c]pyridin-3-yl)propionamide]
inhibition at 50 µM: 80%

Cc1ccc(-c2nn(Cc3ccc(C(F)(F)F)cc3)c3ccccc23)o1 [Compound 146, 3-(5-methylfuran-2-yl)-1-(4-(trifluoromethyl)benzyl)-1H-indazole]
inhibition at 50 µM: 10%

O=C(Nc1nn(Cc2ccc(C(F)(F)F)cc2)c2cncc(Cl)c12)c1ccoc1 [Compound 140, N-(4-chloro-1-(4-(trifluoromethyl)benzyl)-1H-pyrazolo[3,4-c]pyridin-3-yl)furan-3-carboxamide]
inhibition at 50 µM: 10%

O=C(Nc1nn(Cc2ccc(C(F)(F)F)cc2)c2ccccc12)c1cccc(F)c1 [Compound 14, 3-fluoro-N-(1-(4-(trifluoromethyl)benzyl)-1H-indazol-3-yl)benzamide]
inhibition at 50 µM: < 10%

O=C(Nc1nn(Cc2ccc(C(F)(F)F)cc2)c2ccccc12)c1cccc(F)c1F [Compound 20, 2,3-difluoro-N-(1-(4-(trifluoromethyl)benzyl)-1H-indazol-3-yl)benzamide]
inhibition at 50 µM: < 10%

Cc1ccc(C(=O)Nc2nn(Cc3ccc(C(F)(F)F)cc3)c3ccccc23)cc1 [Compound 16]
inhibition at 50 µM: < 10%

O=C(Nc1nn(Cc2cccc(C(F)(F)F)c2)c2ccccc12)c1ccoc1 [Compound 48, N-(1-(3-(trifluoromethyl)benzyl)-1H-indazol-3-yl)furan-3-carboxamide]
inhibition at 50 µM: < 10%

Nc1nn(Cc2ccc(C(F)(F)F)cc2)c2cc(C(F)(F)F)ccc12 [Compound 106, 6-(trifluoromethyl)-1-(4-(trifluoromethyl)benzyl)-1H-indazol-3-amine]
inhibition at 50 µM: < 10%

O=C(Nc1nn(Cc2ccc(CO)cc2)c2ccccc12)c1ccoc1 [Compound 104, N-(1-(4-(hydroxymethyl)benzyl)-1H-indazol-3-yl)furan-3-carboxamide]
inhibition at 50 µM: < 10%

Cc1ccccc1C(=O)Nc1nn(Cc2ccc(C(F)(F)F)cc2)c2ccccc12 [Compound 15, 2-methyl-N-(1-(4-(trifluoromethyl)benzyl)-1H-indazol-3-yl)benzamide]
inhibition at 50 µM: < 10%

O=C(Nc1nn(Cc2ccc(F)cc2)c2ccccc12)c1cccnn1 [Compound 76, N-(1-(4-fluorobenzyl)-1H-indazol-3-yl)pyridazine-3-carboxamide]
inhibition at 50 µM: < 10%

Cc1ccsc1C(=O)Nc1nn(Cc2ccc(C(F)(F)F)cc2)c2ccccc12 [Compound 23, 3-methyl-N-(1-(4-(trifluoromethyl)benzyl)-1H-indazol-3-yl)thiophene-2-carboxamide]
inhibition at 50 µM: < 10%

O=C(Nc1nn(Cc2ccc(C(F)(F)F)cc2)c2ccccc12)c1cccs1 [Compound 9, N-(1-(4-(trifluoromethyl)benzyl)-1H-indazol-3-yl)thiophene-2-carboxamide]
inhibition at 50 µM: 60%

O=C(Nc1nn(Cc2ccc(Cl)cc2)c2ccccc12)c1ccoc1 [Compound 64, N-(1-(4-chlorobenzyl)-1H-indazol-3-yl)furan-3-carboxamide]
inhibition at 50 µM: 50%

Cc1ccc(Cn2nc(NC(=O)c3conc3C)c3ccccc32)cc1 [Compound 79, 3-methyl-N-(1-(4-methylbenzyl)-1H-indazol-3-yl)isoxazole-4-carboxamide]
inhibition at 50 µM: < 10%

O=C(Nc1nn(Cc2ccc(C(F)(F)F)cc2)c2ccccc12)c1cc(Cl)ccn1 [Compound 18]
inhibition at 50 µM: < 10%

Cc1ccc(Cn2nc(NC(=O)c3ccoc3)c3ccccc32)cc1 [Compound 78, N-(1-(4-methylbenzyl)-1H-indazol-3-yl)furan-3-carboxamide]
inhibition at 50 µM: < 10%

Cc1ccc2c(NC(=O)c3cccnn3)nn(Cc3ccc(C(F)(F)F)nc3)c2n1 [Compound 136, N-(6-methyl-1-((6-(trifluoromethyl)pyridin-3-yl)methyl)-1H-pyrazolo[3,4-b]pyridin-3-yl)pyridazine-3-carboxamide]
inhibition at 50 µM: < 10%

Cc1nocc1C(=O)Nc1nn(Cc2ccc(C(F)(F)F)cc2)c2c(C(F)(F)F)cccc12 [Compound 113, 3-methyl-N-(7-(trifluoromethyl)-1-(4-(trifluoromethyl)benzyl)-1H-indazol-3-yl)isoxazole-4-carboxamide]
inhibition at 50 µM: < 10%

O=C(Nc1nn(Cc2ccccc2)c2ccccc12)c1ccoc1 [Compound 58, N-(1-benzyl-1H-indazol-3-yl)furan-3-carboxamide]
inhibition at 50 µM: < 10%

O=C(Nc1nn(Cc2ccc(C(F)(F)F)cc2)c2ccccc12)c1csc(Cl)n1 [Compound 24, 2-chloro-N-(1-(4-(trifluoromethyl)benzyl)-1H-indazol-3-yl)thiazole-4-carboxamide]
inhibition at 50 µM: < 10%

Cc1ncsc1C(=O)Nc1nn(Cc2ccc(C(F)(F)F)cc2)c2cc(C(F)(F)F)ccc12 [Compound 110, 4-methyl-N-(6-(trifluoromethyl)-1-(4-(trifluoromethyl)benzyl)-1H-indazol-3-yl)thiazole-5-carboxamide]
inhibition at 50 µM: < 10%

O=C(Nc1n[nH]c2ccccc12)c1ccoc1 [Compound 62, N-(1H-indazol-3-yl)furan-3 carboxamide]
inhibition at 50 µM: < 10%

Cc1cc(C(=O)Nc2nn(Cc3ccc(C(F)(F)F)cc3)c3ccccc23)oc1C [Compound 1, 4,5-dimethyl-N-(1-(4-(trifluoromethyl)benzyl)-1H-indazol-3-yl)furan-2-carboxamide]
inhibition at 50 µM: < 10%

N#Cc1ccc(Cn2nc(NC(=O)c3ccno3)c3ccccc32)cc1 [Compound 87, N-(1-(4-cyanobenzyl)-1H-indazol-3-yl)isoxazole-5-carboxamide]
inhibition at 50 µM: < 10%

N#Cc1ccc2c(c1)c(NC(=O)c1cccnn1)nn2Cc1ccc(C(F)(F)F)nc1 [N-(5-cyano-1-((6-(trifluoromethyl)pyridin-3-yl)methyl)-1H-indazol-3-yl)pyridazine-3-carboxamide]
inhibition at 50 µM: < 10%

O=C(Nc1nn(Cc2ccc(C(F)(F)F)cc2)c2ccc(C(F)(F)F)cc12)c1ccoc1 [Compound 123, N-(5-(trifluoromethyl)-1-(4-(trifluoromethyl)benzyl)-1H-indazol-3-yl)furan-3-carboxamide]
inhibition at 50 µM: < 10%

O=C(Nc1nn(Cc2ccc(C(F)(F)F)cc2)c2ccccc12)c1ccccc1OC(F)F [Compound 47, 2-(difluoromethoxy)-N-(1-(4-(trifluoromethyl)benzyl)-1H-indazol-3-yl)benzamide]
inhibition at 50 µM: < 10%

Cc1ncsc1C(=O)Nc1nn(Cc2ccc(C(F)(F)F)nc2)c2ccc(C#N)cc12 [Compound 101, N-(5-cyano-1-((6-(trifluoromethyl)pyridin-3-yl)methyl)-1H-indazol-3-yl)-4-methylthiazole-5-carboxamide]
inhibition at 50 µM: < 10%

O=C(Nc1nn(Cc2ccc(C(F)(F)F)cc2)c2ccccc12)c1cnccn1 [Compound 53, N-(1-(4-(trifluoromethyl)benzyl)-1H-indazol-3-yl)pyrazine-2-carboxamide]
inhibition at 50 µM: < 10%

Cc1nocc1C(=O)Nc1nn(Cc2ccc(C(F)(F)F)cc2)c2cncc(Cl)c12 [Compound 142, N-(4-chloro-1-(4-(trifluoromethyl)benzyl)-1H-pyrazolo[3,4-c]pyridin-3-yl)-3-methylisoxazole-4-carboxamide]
inhibition at 50 µM: 10%

Cc1cc[nH]c1C(=O)Nc1nn(Cc2ccc(C(F)(F)F)cc2)c2ccccc12 [Compound 27, 3-methyl-N-(1-(4-(trifluoromethyl)benzyl)-1H-indazol-3-yl)-1H-pyrrole-2-carboxamide]
inhibition at 50 µM: < 10%

FC(F)(F)c1ccc(Cn2nc(Br)c3ccccc32)cc1 [Compound 143, 3-Bromo-1-(4-(trifluoromethyl)benzyl)-1H-indazole]
inhibition at 50 µM: 10%

Cc1ccc(Cn2nc(NC(=O)c3cccnn3)c3ccccc32)cc1 [Compound 83, N-(1-(4-methylbenzyl)-1H-indazol-3-yl)pyridazine-3-carboxamide]
inhibition at 50 µM: < 10%

From US10227345B2, “Compounds and methods for inhibiting fascin” (Cornell University, priority 2014, dated 2019)
